Key:
[1] = test system: angiogenesis induced by FGF-2 adsorbed on a Matrigel pellet; experiment: Matrigel test, in vivo antiangiogenetic activity (hemoglobin content in pellets); parameters: species or system C57BL6N mice; conditions: after 7 days
Method: The antiangiogenic activity was evaluated by means of the Matrigel test, in which angiogenesis is induced by FGF-2 ([…]) adsorbed on a Matrigel pellet (12.5 mg/ml, 0.5 mL) injected subcutaneously in C57BL6N mice.
The tested compound was administered through the oral route daily or through the intraperitoneal route on alternate days, at the shown concentration. After 7 days, the angiogenic response was evaluated by measuring the hemoglobin content in the pellets, according to the procedure by Drabkin.

FGF-2: growth factor adsorbed on the Matrigel pellet to induce angiogenesis [reference compound]
Hemoglobin ([1]; FGF-2 alone (150 mg/pellet) on Matrigel pellet, no test compound): 0.03 ± 0.001 g/dL | % (change of hemoglobin content) ([1]; FGF-2 alone versus control): +300%

13-[(2R, 3S)-3-isobutyl-2-hydroxy-3-tert-butoxycarbonylamino-propanoyl]-C-seco-10-dehydro-10-deacetyl-7,9-bis-acetyl-baccatine III 1,14-carbonate [Example VII]
% (change of hemoglobin content) ([1]; 50 mg/kg i.p. on alternate days): −40% | Hemoglobin ([1]; 50 mg/kg i.p. on alternate days, FGF-2 Matrigel pellet s.c.): 0.014 g/dL | % (change of hemoglobin content) ([1]; 100 mg/kg p.o. daily): −70% | Hemoglobin ([1]; 100 mg/kg p.o. daily, FGF-2 Matrigel pellet s.c.): 0.009 g/dL

13-[(2R, 3S)-3-iso-butyl-2-hydroxy-3-tert-butoxycarbonylamino-propanoyl]-C-seco-10-dehydro-10-deacetyl-7,9-bis-acetyl-baccatine III [Example II]
% (change of hemoglobin content) ([1]; 90 mg/kg i.p. on alternate days): −50% | Hemoglobin ([1]; 90 mg/kg i.p. on alternate days, FGF-2 Matrigel pellet s.c.): 0.015 ± 0.001 g/dL | % (change of hemoglobin content) ([1]; 150 mg/kg p.o. daily): −70% | Hemoglobin ([1]; 150 mg/kg p.o. daily, FGF-2 Matrigel pellet s.c.): 0.009 ± 0.001 g/dL

CC(=O)O[C@H]1C(=O)[C@@]2(C)[C@H]([C@H](OC(=O)c3ccccc3)[C@]3(O)C[C@H](OC(=O)[C@H](O)[C@@H](NC(=O)c4ccccc4)c4ccccc4)C(C)=C1C3(C)C)[C@]1(OC(C)=O)CO[C@@H]1C[C@@H]2O [Paclitaxel]
neuro-toxicity (tremors) (mouse, in vivo): induces tremors | weight loss (nude mouse with human tumor cells, dose effective in inhibiting tumor growth (same antitumor activity)): up to 20%
